Series [1] addresses T1, recombinant human protein MAGL (Homo sapiens, UniProt Q99685).
T1 construct: purchased Cayman
T1 sequence (Q99685 1-303): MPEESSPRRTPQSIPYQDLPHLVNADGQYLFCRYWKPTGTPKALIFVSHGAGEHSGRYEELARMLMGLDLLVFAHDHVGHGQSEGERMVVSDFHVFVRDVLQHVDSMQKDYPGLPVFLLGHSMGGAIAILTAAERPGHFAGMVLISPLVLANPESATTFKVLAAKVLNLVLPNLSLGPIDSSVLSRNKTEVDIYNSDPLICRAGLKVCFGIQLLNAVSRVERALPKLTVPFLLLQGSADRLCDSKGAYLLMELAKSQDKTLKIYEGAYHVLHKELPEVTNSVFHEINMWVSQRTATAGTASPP
The experiment in a line: MAGL enzyme analysis (Cayman MAGL inhibitor screening kit). The conditions noted are these: 4-nitrophenylacetic acid substrate, absorbance 410 nm, read-out: MAGLXIC50. It is filed as biochemical. Here is the method: 150 µL 1Xassay buffer, 10 µL recombinant human protein MAGL and 10 µL different concentrations of MAGL inhibitors (six points within 1 nM to 1000 nM) were added to per well of a 96-well plate. JZL195 (a positive control inhibitor) served as a positive control well, after incubation for 5 min at room temperature, per well was added with 10 µL MAGL substrate, and […] were vibrated for 10 s and placed for 10 min at room temperature, then an absorbance was detected at 410 nm. […] Graphad Prism 5.0 was taken to calculate IC50 curves fitting each inhibitor.

The nature of series [2]: Tissue distribution test in mice. The settings on record: 16 mg/kg subcutaneous injection. Also on record: content in the brain (tissue distribution): unit not given here. It is filed as in vivo.
The subject of series [3] is reserpine-induced mice depression. Description: Reserpine-induced mice depression. It is filed as in vivo, ICR mouse. Also noted: Awakening / Finger contact / Head touch / Fear / Autonomic activity / Eyelid closure / Upright: scale not given here. The conditions noted are these: for Autonomic activity / Awakening / Eyelid closure / Fear / Finger contact / Head touch / Upright: 2 h after reserpine 4 mg/kg. The procedure: • Species: ICR mouse • Microbiological level: SPF • Quantity and sex of the animals purchased: male: 75; female: 75 • Quantity and sex of the animals used: male: 75; female: 75 • Body weight: 13-18 g when accepted
Group design: there were 50 pieces for each batch of animals and 3 batches in total; each batch of animals were randomly divided into 5 groups; low, middle and high-dose groups of the samples for test, blank control group and model group; a sample for test was tested per batch.
3.1 Animals were administrated via subcutaneous injection per day with doses of 4, 8 and 16 mg/kg for 6 d in total. 2 h later after the final administration, each animal was subcutaneously injected with 4 mg/kg reserpine except the blank control group; afterwards, indicators, such as, awakening, finger contact, fear, head touch, autonomic activity, upright and eyelid closure were determined 2 h later.
Data statistics and analysis were completed via a computer by SPSS 17.0 software and office 2016, and data statistics was inspected by Kruskal-Wallis. If the Kruskal-Wallis inspection result is significant ((P<0.05), multiple comparison inspection is further performed by a Mann-Whitney U nonparametric test method.

For another series, the system named is ulcerative colitis mice. Description: Mice ulcerative colitis (DSS). It is filed as in vivo, BALB/c mice. The conditions noted are these: DSS mice, 100 mg/kg ig. The source says: Healthy male SPF-level BALB/c mice (8-week old and body mass: (20±2) g).
Modeling: the mice were randomly divided into […] at the end of the quarantine, 10 pieces for each group. The mice in the normal group drank normal water freely, and the rest groups of mice drank 1.0%-1.5% DSS solution freely for modeling, 7 d later after modeling, the mice in the modeling group drank normal water freely for 7 d, and 14 d served as a modeling period for four continuous periods, and the mice in the modeling group were administered at the same time.
End point of the experiment: experimental administration was performed for four periods, and dissection was performed on the 3rd and 4th day of the recovery period of the 4th period.
Test indicators: the mice were weighed twice a week after the beginning of the administration; diarrhea and hematochezia of the mice were observed, and times of hematochezia were recorded.
At the end of the experiment, the mice were dissected and weighed, and narcotized to take blood, then serum was preserved at -80° C. Spleen was taken and weighed to calculate the spleen index. The content of IL-1β in serum was detected via ELISA. Colorectum was cut and taken to measure the length of colorectum, then immobilized by formaldehyde and dyed by HE to detect the pathological change.

Series [4] deals with mice pain response induced by hot plate. The experiment in a line: Mice pain response induced by hot plate. It is filed as in vivo, ICR mice. The conditions noted are these: hot plate 55°C, positive control 10 mg/kg ig 7 d. The procedure:
Female ICR mice (20±2) g were placed on an intelligent hot plate at 55±0.5° C., and latency (s) that the plantar of mice touched the hot plate until the occurrence of a hind paws licking response served as a pain threshold indicator; the mice (response latency <5 s or >30 s) or jumping mice were eliminated.
Grouping and administration were the same as those in Example 40.
The mice were continuously administered intragastrically for 7 consecutive days; the pain threshold of each group of mice was respectively determined once at 30, 60, 90 and 120 min after the final administration; the pain threshold greater than 60 s was calculated by 60 s.

The test system of series [5] is mice with inflammatory pain. The experiment in a line: Pain threshold of mice with inflammatory pain (complete Freund's adjuvant). It is filed as in vivo, SD mice. The conditions noted are these: complete Freund's adjuvant paw model, positive control 10 mg/kg ig once per day. Here is the method:
[…] (180±20) g were injected with a complete Freund’s adjuvant (50 µL/piece) at the right rear plantar of mice, and mice in the control group were injected with the corresponding volume of 0.5% sodium carboxymethylcellulose to establish a paw edema inflammatory pain model. After modeling, the mice were administered for 7 d continuously, and administered intragastrically once per day. Pain thresholds (s) of the mice were respectively determined on the 1st, 3rd and 7th day before administration and after modeling at different periods of time.
Grouping and administration were the same as those of Example 40.

Series [6] deals with mice writhing caused by acetic acid. Description: Mice writhing caused by acetic acid. The settings on record: positive control 10 mg/kg ig. Background: An intraperitoneal irritant provokes the stretching counted in writhing tests.
In series [7] the test system is reserpine-induced mice migraine. The experiment in a line: Reserpine-induced mice migraine. It is filed as in vivo, ICR mice. Here is the method:
The mice in the blank control group and model group were administered intragastrically via a solvent from the 5th day after modeling, and the rest groups of mice were respectively administered corresponding medicaments and doses for intragastric administration for 10 consecutive days; 1 h later after the final administration, the mice were weighed; blood was taken at inner canthus to detect blood coagulation time; whole blood was taken, and cerebrum was taken on an ice and preserved at -20° C. for the subsequent experiment.
Behavioral test: tail suspension activity was performed; the position 1 cm away from the tail of the mice was glued by an adhesive tape on the 9th day of the test, and the adhesive tape was penetrated by a steel needle, and hung in a dark box such that the mice were hung upside down; then the mice struggling times (total number of overturning from hanging) within 2 min were observed.
The mice were weighed 1 h later after the final administration; blood of inner canthus was taken via a capillary to detect the blood coagulation time.
Blood was taken to detect the content of 5-HT in serum via high-performance liquid chromatography. Cerebrum was taken on an ice and precooled and cleaned slightly with 0.5% sodium carboxymethylcellulose, and then sucked dry with a filter paper, and placed into a cryogenic tube, and preserved at -20° C. for further use, then the content of 5-HT in brain tissues was detected by high performance liquid chromatography.
5-HT test method: a sample was precipitated with 10% perchloric acid solution according to 1:1, and then centrifuged to take supernatant for test. Chromatographic conditions: the chromatographic column is a SHIMADZU VP-ODS C18 column (250*4.6 mm, 5 um), the mobile phase is a methanol-0.01 mol/L potassium acetate buffer solution (10:90, V/V, PH is adjusted to 4.00 with 0.2 mol/L citric acid) for gradient elution; the column temperature is 25° C., flow rate is 1.00 ml/min and test wavelength is 275 nm.

Take `O=C(Nc1ccccc1)C1CCN(C(=O)c2ccc(Oc3ccccc3)cc2)CC1` [MAGLZ-II-01]: the IC50 in series [1] is 45 nM. Moreover, the “content in the brain (tissue distribution)” value in series [2] (1.0 h) was 0; in series [2] (2.0 h) it was 0.6; in series [2] (5.0 h), 0.9.
In the case of `Cc1cc(C)cc(NC(=O)C2CCN(C(=O)c3ccc(Oc4ccccc4)cc3)CC2)c1` [MAGLZ-II-02], the IC50 in series [1] was 27 nM. The “content in the brain (tissue distribution)” value in series [2] (1.0 h) turned out to be 0; in series [2] (2.0 h), 1.2; in series [2] (5.0 h), 3.7.
On to `COc1cccc(NC(=O)C2CCN(C(=O)c3ccc(Oc4ccccc4)cc3)CC2)c1` [MAGLZ-II-03], for which the IC50 in series [1] is 749 nM.
Consider `CCCC(=O)Oc1cccc(C(=O)N2CCC(C(=O)Nc3cccc(Cl)c3)CC2)c1` [MAGLZ-II-11F], for which the IC50 in series [1] stood at 126 nM.
Same read-out and setting: under `N[C@H](Cc1ccc(O)cc1)C(=O)Oc1cccc(C(=O)N2CCC(C(=O)Nc3cccc(Cl)c3)CC2)c1` [MAGLZ-II-11J] stands 1600 nM; under `COc1cccc(C(=O)N2CCC(C(=O)Nc3cccc(Cl)c3)CC2)c1` [MAGLZ-II-14], 333 nM.
Consider `O=C(Nc1cccc(Cl)c1)C1CCN(C(=O)c2ccc(Oc3ccccc3)cc2)CC1` [MAGLZ-II-16], for which, in series [2], the “content in the brain, ranking of the test substances” value was “highest”. Also, the “content in the brain (tissue distribution)” value in series [2] (1.0 h) came out at 0. The “content in the brain (tissue distribution)” value in series [2] (2.0 h) is 32.8. Also, the “content in the brain (tissue distribution)” value in series [2] (5.0 h) is 16.9. For the same molecule, in series [3] (4, 8 and 16 mg/kg sc 6 d), the “effect on reserpine-induced depression (conclusion)” value is given as “has a certain effect”. In series [3] (high dose 16 mg/kg sc 6 d), this molecule had an Autonomic activity of 0.6±0.6, an Awakening of 2±0, an Eyelid closure of 0±0 and a Fear of 0±0. In series [3] (high dose 16 mg/kg sc 6 d), this molecule yielded a Finger contact of 1.6±0.8, a Head touch of 0.8±0.98 and an Upright of 0.4±1.2. In series [3] (low dose 4 mg/kg sc 6 d), this molecule showed an Autonomic activity of 0±0, an Awakening of 2±0, an Eyelid closure of 0±0 and a Fear of 0±0. In series [3] (low dose 4 mg/kg sc 6 d), this molecule displayed a Finger contact of 1.4±0.92, a Head touch of 0.4±0.8 and an Upright of 0±0. Also, in series [3] (middle dose 8 mg/kg sc 6 d), the Autonomic activity came out at 0.2±0.6, the Awakening is listed as 1.8±0.6, the Eyelid closure was 0±0 and the Fear amounted to 0±0. Besides, in series [3] (middle dose 8 mg/kg sc 6 d), the Finger contact amounted to 1.2±0.98, the Head touch amounted to 0.8±0.98 and the Upright came out at 0±0.
Take `O=C(Nc1ccc(Cl)c(Cl)c1)C1CCN(C(=O)c2ccc3ccccc3c2)CC1` [MAGLZ-II-24]: the IC50 in series [1] stood at 275 nM.
Consider `O=C(Nc1cc(Cl)cc(Cl)c1)C1CCN(C(=O)c2ccc3ccccc3c2)CC1` [MAGLZ-II-25], for which the IC50 in series [1] was determined as 139 nM.
Turning to `O=C(Nc1cccc(Cl)c1)C1CCN(C(=O)c2ccc3cc(O)ccc3c2)CC1` [MAGLZ-II-29], the IC50 in series [1] amounted to 252 nM.
Regarding `O=C(c1cccc(O)c1)N1CCC(c2nc3cc(Cl)ccc3o2)CC1` [MAGLZ-II-30], the IC50 in series [1] stood at 11 nM.
On to `Nc1ccc(O)c(C(=O)O)c1` [Mesalazine, reference compound], for which, in the series with ulcerative colitis mice, the “Total times of hematochezia within the four periods” value turned out to be 32.80±4.96. Further, the Colon length in the series on ulcerative colitis mice (four periods) amounted to 6.66±0.68 cm. This molecule came in with an IL-1 content with ulcerative colitis mice (serum, ELISA) of 48.33 ± 6.49 pg/mL.
On to `O=C(O)Cc1ccccc1Nc1c(Cl)cccc1Cl` [Positive medicament, diclofenac sodium, reference compound], for which the Pain threshold in series [4] (30 min after final administration) was 22.32 ± 6.76 s; in series [4] (60 min), 24.34 ± 8.19 s; in series [4] (90 min), 22.64 ± 6.48 s; in series [4] (120 min), 22.52 ± 6.91 s; in series [5] (0 d), 12.71 ± 2.55 s; in series [5] (1 d), 6.38±0.91^∗ s. The Pain threshold is recorded as 8.05±1.23^∗ s in series [5] (3 d) and 9.00±0.911^∗ s in series [5] (7 d). The molecule further had a Writhing times in series [6] (1 h before 0.7% acetic acid ip, within 20 min) of 24.5±12.9. This molecule returned a Latent time in series [6] (time to first writhing) of 358.5 ± 172.7 s. Besides, the Inhibition ratio in series [6] (writhing inhibition) is recorded as 37.7%.
Turning to `CN(C)CCc1c[nH]c2ccc(C[C@H]3COC(=O)N3)cc12` [Zolmitriptan, reference compound], the Blood coagulation time in series [7] (reserpine 0.2 mg/kg sc mice, 0.5 mg/kg ig 10 d, 1 h after final administration) was 185.12±38.86 S. In addition, in series [7] (reserpine mice, 0.5 mg/kg ig 10 d), the “brain tissue 5-HT” value stood at 1.93 ± 0.37 nmol/g. The “Times of tail suspension (struggling times within 2 min)” value in series [7] (reserpine mice, 0.5 mg/kg ig, 9th day) came out at 18.13 ± 3.94.

These data come from patent US20230090255A1, “MAGL INHIBITOR, PREPARATION METHOD THEREFOR AND USE THEREOF” (LUNAN PHARMACEUTICAL GROUP CORPORATION, priority 2019, published 2023).
